“Also recorded” adds a separate entry of the source. Ends that are not written are not given here.

The target in one experiment is Beclin1 peptide (UniProt Q14457). Particulars: cited from earlier work.
For experiment [1], the system named is M11–Beclin1(101–267) complex. Description: Displacement test on M11–Beclin1(101–267) complex. To be noted: M11 mixed with Beclin1(101–267) at 1:1 molar ratio, 1 h; BH3 peptide added, additional 1 h; gel. The class given is binding, murine γ-herpesvirus 68. The source says:
(§1) A newly identified function of BCL-2 is the down regulation of autophagy through their inhibitory binding to Beclin1, which appears critical for cellular homeostasis. […] The weak interaction explains the recent observation that endogenous BH3-only proteins induce autophagy by displacing Beclin1 from BCL-2/BCL-XL [31]. Like the cellular kin, two viral BCL-2 proteins from γHV68 and KSHV are known to inhibit autophagy in addition to suppressing apoptotic death of cells. In this study, we provided the structural basis for the inhibitory interaction of M11 with Beclin1, which is reminiscent of the canonical interaction between a BH3 peptide and a BH3-binding groove. […] As a confirmatory experiment, we carried out a displacement test, where a complex between two proteins was challenged by another protein. […] Conceivably, M11 could negate the proautophagic role of the BH3-only proteins under apoptosis-inducing conditions in contrast with BCL-2/BCL-XL.
The complexes between each of the BH3 peptides and BCL-2 or BCL-XL appeared. The numbers above the gels indicate the final concentrations of the indicated proteins and peptides. The schematic drawings are shown to help to understand the experimental scheme and results. (1.8 MB TIF) Click here for additional data file.

A further experiment concerns BCL-2 ∆C22. Details: method as in earlier work. To be noted: Table S1; relative values, not absolute KD; peptides of Chen et al. are the same as or 1 to 2 residues shorter than those of this paper; read-out: binding affinity for BCL-2 ∆C22 (relative value, competitive binding assay); cited from earlier work.
The subject of another experiment is BCL-XL ∆C24. To be noted: Table S1; relative values, not absolute KD; peptides of Chen et al. are the same as or 1 to 2 residues shorter than those of this paper; read-out: binding affinity for BCL-XL ∆C24 (relative value, competitive binding assay); cited from earlier work.
The test system of the next experiment is BCL-w ∆C29. To be noted: Table S1; relative values, not absolute KD; peptides of Chen et al. are the same as or 1 to 2 residues shorter than those of this paper; read-out: binding affinity for BCL-w ∆C29 (relative value, competitive binding assay); cited from earlier work.
The test system of a further experiment is A1 ∆C20. More on the design: method as in earlier work. To be noted: Table S1; relative values, not absolute KD; peptides of Chen et al. are the same as or 1 to 2 residues shorter than those of this paper; read-out: binding affinity for A1 ∆C20 (relative value, competitive binding assay); cited from earlier work.
For experiment [2], the target named is T1, M11, viral BCL-2 of murine γ-herpesvirus 68 (residues 1–137) (Murid herpesvirus 4, UniProt P89884).
T1 construct: Each of the DNA fragments coding for M11 (residues 1–137); His6 tag; This is inferred: pPROEX HTa encodes an N-terminal His tag with a TEV site, and purification was on Ni-NTA; (N); made in house; host or cells: E. coli BL21(DE3)
T1 sequence (P89884 whole entry, looked up): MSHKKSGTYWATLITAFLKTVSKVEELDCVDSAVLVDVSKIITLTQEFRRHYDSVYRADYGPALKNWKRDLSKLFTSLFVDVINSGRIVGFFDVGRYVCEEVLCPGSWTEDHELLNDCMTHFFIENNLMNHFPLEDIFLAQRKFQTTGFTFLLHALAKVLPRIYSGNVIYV
The class given is binding. To be noted: 25 °C, 20 mM Tris-HCl (pH 7.4), 100 mM NaCl. An excerpt:
“HT”, “CCD” and “ECD” denote hydrophobic tail, coiled-coil domain and evolutionarily conserved domain, respectively. […] The surface coloring scheme is as follows: olive for Val, Leu, Ile, Phe, Trp, Met, and Ala; yellow for Cys, Gly, Tyr, and Pro; gray for other amino acids. […] Only the BH3-binding groove region of M11 is shown for clarity. […] The arrows indicate the movements of the Cα atoms of Asp59 and Tyr60 in M11. (C) ITC analysis.
Figure 5 Analyses of the Interactions between M11 or BCL-2 Proteins and BAX/BAK (A) Cell-based binding assay. 293T cells were transfected with HA-tagged BAK or Flag-tagged BAX together with the indicated GST-tagged prosurvival BCL-2 proteins. Whole cell lysates were used for immunoprecipitation with anti-GST followed by immunoblotting with anti-HA or anti-Flag. […] (B) ITC analyses of the interactions of M11 with the BH3 peptides of BAX or BAK. The ITC analysis was carried out by titrating 0.1 mM of the indicated peptides into 5 μM of M11. The ITC run for the titration of the 26-mer BAK peptide is shown. […] NIH3T3 cells were transfected with HA-tagged M11 and whole cell lysates were used for immunoprecipitation with control rabbit serum or anti-BAK followed by immunoblotting with anti-HA.
A plasmid containing the DNA segment coding for human BCL-2 (residues 1–50 and 92–207) was also constructed. The resulting protein lacks the internal long loop (residues 51–91) and contains a replacement of residues 35–50 with residues 33–48 of BCL-XL, which was necessary for the solubility of the protein as reported earlier. Each construct was introduced into the E. coli BL21(DE3) strain. The proteins were expressed at 21 °C overnight and purified using a Ni-NTA column and a Hitrap Q anion exchange column.
All measurements were carried out at 25 °C on a MicroCalorimetry System (MicroCal). Protein samples were dialyzed against the solution containing 20 mM Tris-HCl (pH 7.4) and 100 mM NaCl. The samples were degassed for 20 min and centrifuged to remove any residuals prior to the measurements. Dilution enthalpies were measured in separate experiments (titrant into buffer) and subtracted from the enthalpies of the binding between the protein and the titrant. Data were analyzed using the Origin software (OriginLab Corp.).

The subject of experiment [3] is BCL-2–Beclin1(101–267) complex. Description: Displacement test on BCL-2–Beclin1(101–267) complex. The class given is binding, human. Particulars: BCL-2 mixed with Beclin1(101–267) at 1:4 molar ratio, 1 h; BH3 peptide added; gel.
Text: as §1
(§2) Each of the DNA fragments coding for M11 (residues 1–137), mouse BCL-XL (residues 1–44 and 85–196) or mouse Beclin1 (residues 101–267) was cloned into pPROEX HTa. A plasmid containing the DNA segment coding for human BCL-2 (residues 1–50 and 92–207) was also constructed. […]

Experiment [4] has as its system BCL-XL–Beclin1(101–267) complex. The experiment can be described thus: Displacement test on BCL-XL–Beclin1(101–267) complex. To be noted: BCL-XL mixed with Beclin1(101–267) at 1:4 molar ratio, 1 h; BH3 peptide added; gel. The class given is binding, mouse.
Text: as §1, §2

Another experiment has as its system MCL ∆N151 ∆C23. Details: method as in earlier work. Particulars: Table S1; relative values, not absolute KD; peptides of Chen et al. are the same as or 1 to 2 residues shorter than those of this paper; read-out: binding affinity for MCL ∆N151 ∆C23 (relative value, competitive binding assay); cited from earlier work.
Experiment [5] concerns the target T2, M11 (residues 1–137), purified alone (murine γ-herpesvirus 68, UniProt P89884 1-137).
T2 chain: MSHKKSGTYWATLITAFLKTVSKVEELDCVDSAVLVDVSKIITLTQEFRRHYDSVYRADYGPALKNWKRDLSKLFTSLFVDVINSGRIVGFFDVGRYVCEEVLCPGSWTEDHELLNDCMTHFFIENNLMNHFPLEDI
Description: ITC.

Experiment [6] addresses T3, mouse BAD (residues 43–204) (mouse, UniProt Q61337 43-204).
T3 sequence (looked up): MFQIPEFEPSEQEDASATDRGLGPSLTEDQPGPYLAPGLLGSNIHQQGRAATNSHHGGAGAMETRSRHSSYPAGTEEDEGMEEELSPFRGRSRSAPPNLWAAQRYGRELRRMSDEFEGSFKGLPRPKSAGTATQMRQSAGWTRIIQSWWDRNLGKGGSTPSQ
Description: crystal structure; BCL-XL (1–44, 85–196) coexpressed and co-purified with BAD(43–204); hanging drop, 4 °C, 10% PEG 1000, 10% PEG 8000; 2.3 Å. To be noted: both partners purified.

The target in experiment [7] is T4, M11 (residues 1–137), coexpressed with Beclin1(101–150) (murine γ-herpesvirus 68, UniProt P89884 1-137).
T4 sequence: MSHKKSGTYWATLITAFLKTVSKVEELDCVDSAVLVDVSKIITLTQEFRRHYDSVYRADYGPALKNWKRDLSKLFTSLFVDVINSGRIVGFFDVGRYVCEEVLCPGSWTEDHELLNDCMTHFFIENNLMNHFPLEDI
The experiment can be described thus: crystal structure. Particulars: both partners purified.

On to BCL-XL (from UniProt Q07817), for which the Kd (in general, the equilibrium constant for the complex coming apart) with Beclin1 peptide was 1100 nM.

For EEIIHNIARHLAQIGDEMDHNIQPT [BID], in experiment [1], the “displacement of Beclin1(101–267) bound to M11 by BH3 peptide” value is “remained intact; also recorded: failed to displace”. The IC50 with BCL-2 ∆C22 was 6800 nM; in the experiment with BCL-XL ∆C24, 82 nM; in the experiment on BCL-w ∆C29, 40 nM; with A1 ∆C20, 9.3 nM.

Take `CC[C@H](C)[C@H](NC(=O)[C@H](CCCCN)NC(=O)[C@H](CCCNC(=N)N)NC(=O)[C@H](CC(C)C)NC(=O)[C@H](CCC(N)=O)NC(=O)[C@H](C)NC(=O)[C@H](C)NC(=O)[C@H](Cc1ccccc1)NC(=O)[C@H](CCC(=O)O)NC(=O)[C@@H]1CCCN1C(=O)[C@@H]1CCCN1C(=O)[C@H](CC(C)C)NC(=O)[C@H](CCC(=O)O)NC(=O)[C@H](C)NC(=O)[C@@H](N)CCCNC(=N)N)C(=O)NCC(=O)N[C@@H](CC(=O)O)C(=O)N[C@@H](CCCCN)C(=O)N[C@H](C(=O)N[C@@H](Cc1ccc(O)cc1)C(=O)N[C@@H](CS)C(=O)N[C@H](C(=O)N[C@@H](Cc1c[nH]c2ccccc12)C(=O)N[C@@H](CO)C(=O)N[C@@H](C)C(=O)N1CCC[C@H]1C(=O)O)[C@@H](C)O)C(C)C` [Noxa]: the “displacement of Beclin1(101–267) bound to M11 by BH3 peptide” value in experiment [1] is on record as “remained intact; also recorded: failed to displace”. The IC50 with BCL-2 ∆C22 was greater than 100000 nM; with BCL-XL ∆C24 it was greater than 100000 nM; with BCL-w ∆C29, greater than 100000 nM; in the experiment with A1 ∆C20, 180 nM.

In the case of “BAD: synthetic 27-mer BH3 peptide, residues 137–163 of BAD (TATQMRQSSSWTRVFQSWWDRNLGRGS; BH3 peptide; UniProt Q92934 137-163, looked up, fragment)”, the “interaction with M11 in ITC, in words (KD could not be deduced)” value in [2] is on record as “did not interact or poorly interacted”. Moreover, the “displacement of Beclin1(101–267) bound to BCL-2 by BH3 peptide” value in [3] is “easily disrupted”. Further, the “displacement of Beclin1(101–267) bound to BCL-XL by BH3 peptide” value in experiment [4] is listed as “easily disrupted”. Moreover, the IC50 was 16 nM with BCL-2 ∆C22; 5.3 nM in the experiment with BCL-XL ∆C24; 30 nM in the experiment with BCL-w ∆C29; greater than 100000 nM in the experiment with MCL ∆N151 ∆C23; 15000 nM with A1 ∆C20.

Consider HRAEVQIARKLQCIADQFHRLHTQ [BMF BH3 peptide, 24-mer (residues 214–237 of BMF)], for which binding in [5] was put at a Kd of 300 nM.

B1: mouse BCL-XL (residues 1–44 and 85–196) (domain or fragment, UniProt Q64373-1 1-196, looked up)
chain: MSQSNRELVVDFLSYKLSQKGYSWSQFSDVEENRTEAPEETEAEAVKQALREAGDEFELRYRRAFSDLTSQLHITPGTAYQSFEQVVNELFRDGVNWGRIVAFFSFGGALCVESVDKEMQVLVSRIASWMATYLNDHLEPWIQENGGWDTFVDLYG
notes: also called BCL-XL lacking the internal long loop and the C-terminal tail region
Turning to B1, in experiment [6], the binding result was “binds”.

B2: Beclin1(101–150) (domain or fragment, mouse, UniProt O88597 101-150, looked up)
chain: ASDGGTMENLSRRLKVTGDLFDIMSGQTDVDHPLCEECTDTLLDQLDTQL
notes: also called mouse Beclin1 fragment consisting of residues 101–150; 50-residue Beclin1 fragment
In the case of B2, the binding result in experiment [7] is on record as “binds”.

These data come from PMC2222952, “Structural and Biochemical Bases for the Inhibition of Autophagy and Apoptosis by Viral BCL-2 of Murine γ-Herpesvirus 68” (PLoS Pathogens, 2008).
